Reference: ChEMBL document CHEMBL3272096, “Semisynthetic cephalosporins. Synthesis and structure-activity relationships of 7-sulfonylacetamido-3-cephem-4-carboxylic acids” (1976)
Values after ≈ are worked out from the molar mass of the structure shown. Active and inactive are the calls of the source. No cut-off for these calls is given here.

Tests used:
[1] = system: Enterococcus faecalis; experiment: Antibacterial activity against Streptococcus faecalis by two-fold agar dilution method; assay type: functional
[2] = system: Pseudomonas aeruginosa; experiment: Antibacterial activity against Pseudomonas aeruginosa by two-fold agar dilution method; assay type: functional, organism-based
[3] = system: Staphylococcus aureus; experiment: Antibacterial activity against penicillin G-resistant Staphylococcus aureus HH 127 by two-fold agar dilution method; assay type: functional
[4] = system: Escherichia coli; experiment: Antibacterial activity against Escherichia coli 12140 by two-fold agar dilution method; assay type: functional
[5] = system: Klebsiella pneumoniae; experiment: Antibacterial activity against Klebsiella pneumoniae 4200 by two-fold agar dilution method; assay type: functional
[6] = system: Salmonella paratyphi; experiment: Antibacterial activity against Salmonella paratyphi ATCC 12176 by two-fold agar dilution method; assay type: functional, Salmonella enterica subsp. enterica serovar Paratyphi A; details: Salmonella enterica
[7] = system: Shigella flexneri; experiment: Antibacterial activity against Shigella paradysenteriae HH 117 by two-fold agar dilution method; assay type: functional
[8] = system: Klebsiella aerogenes; experiment: Antibacterial activity against Enterobacter aerogenes ATCC 13048 by two-fold agar dilution method; assay type: functional
[9] = system: Escherichia coli; experiment: Antibacterial activity against Escherichia coli 12140 infected in sc dosed mouse assessed as host protection administered at 1 and 5 hrs post-infection; assay type: functional; details: Escherichia coli, 12140, sc; read-out: PD50
[10] = system: Staphylococcus aureus; experiment: Antibacterial activity against Staphylococcus aureus 23390 by two-fold agar dilution method; assay type: functional, organism-based

Row | SMILES | MIC [1] [µg/mL] | Activity [2] | MIC [3] [µg/mL] | MIC [4] [µg/mL] | MIC [5] [µg/mL] | MIC [6] [µg/mL] | MIC [7] [µg/mL] | MIC [8] [µg/mL] | ED50 [9] [mg/kg] | Activity [10]
1 | CCCS(=O)(=O)CC(=O)N[C@@H]1C(=O)N2C(C(=O)[O-])=C(CSc3nnnn3C)CS[C@H]12.[Na+] | > 13 | inactive | 0.4 | 1.6 | 0.8 | 0.4 | 1.6 | 6.2 | 10 | Active
2 | Cn1cnnc1SCC1=C(C(=O)[O-])N2C(=O)[C@@H](NC(=O)CS(C)(=O)=O)[C@H]2SC1.[Na+] | > 13 | inactive | 3.1 | 6.2 | 6.2 | 3.1 |  | > 200 | 22 | Active
3 | CCCS(=O)(=O)CC(=O)N[C@@H]1C(=O)N2C(C(=O)[O-])=C(CSc3nnc(C)s3)CS[C@H]12.[Na+] | > 13 | inactive | 0.4 | 6.2 | 3.1 | 1.6 | 6.2 | 50 | 25 | Active
4 | CCCCS(=O)(=O)CC(=O)N[C@@H]1C(=O)N2C(C(=O)O)=C(COC(C)=O)CS[C@H]12 | > 13 | inactive | 0.2 (≈ 0.46 µM) | 13 (≈ 29.9 µM) | 13 (≈ 29.9 µM) | 3.1 (≈ 7.13 µM) | 6.2 (≈ 14.3 µM) | 50 (≈ 115 µM) | 180 | Active
5 | CC(=O)OCC1=C(C(=O)[O-])N2C(=O)[C@@H](NC(=O)C(C)S(C)(=O)=O)[C@H]2SC1.[Na+] (some centres undefined) | > 13 | inactive | 3.1 | 25 | 3.1 | 13 | 25 | 50 |  | Active
6 | CC(=O)OCC1=C(C(=O)[O-])N2C(=O)[C@@H](NC(=O)CS(=O)(=O)c3ccccc3)[C@H]2SC1.[Na+] | > 13 | inactive | 1.6 | 50 | 13 | 13 | 25 | > 200 |  | Active
7 | CCCCS(=O)(=O)CC(=O)N[C@@H]1C(=O)N2C(C(=O)[O-])=C(CSc3nnnn3C)CS[C@H]12.[Na+] | > 13 | inactive | 0.4 | 3.1 | 3.1 | 1.6 | 3.1 | 13 | 21 | Active
8 | Cc1nnc(SCC2=C(C(=O)[O-])N3C(=O)[C@@H](NC(=O)CS(C)(=O)=O)[C@H]3SC2)s1.[Na+] | > 13 | inactive | 1.6 | 13 | 3.1 | 3.1 | 13 | > 200 |  | Active
9 | CS(=O)(=O)CC(=O)N[C@@H]1C(=O)N2C(C(=O)[O-])=C(CSc3cnn[nH]3)CS[C@H]12.[Na+] | > 13 | inactive | 1.6 | 13 | 6.2 | 6.2 | 13 | > 200 |  | Active
10 | CC(=O)OCC1=C(C(=O)[O-])N2C(=O)[C@@H](NC(=O)CS(N)(=O)=O)[C@H]2SC1.[Na+] | > 13 | inactive | 1.6 | 50 | 25 | 13 | 25 | 200 |  | Active
11 | CCS(=O)(=O)CC(=O)N[C@@H]1C(=O)N2C(C(=O)O)=C(CSc3nnc(C)s3)CS[C@H]12 | > 13 | inactive | 0.4 (≈ 0.836 µM) | 3.1 (≈ 6.48 µM) | 1.6 (≈ 3.34 µM) | 1.6 (≈ 3.34 µM) | 6.2 (≈ 13 µM) | 100 (≈ 209 µM) | 8 | Active
12 | CC(=O)OCC1=C(C(=O)O)N2C(=O)[C@@H](NC(=O)CS(=O)(=O)C(F)(F)F)[C@H]2SC1 | > 13 | inactive | 6.2 (≈ 13.9 µM) | 6.2 (≈ 13.9 µM) | 6.2 (≈ 13.9 µM) | 6.2 (≈ 13.9 µM) | 13 (≈ 29.1 µM) | 25 (≈ 56 µM) | > 50 | Active
13 | Cn1nnnc1SCC1=C(C(=O)[O-])N2C(=O)[C@@H](NC(=O)CS(N)(=O)=O)[C@H]2SC1.[Na+] | > 13 | inactive | 1.6 | 3.1 | 13 | 1.6 | 3.1 | 13 | 38 | Active
14 | Cn1nnnc1SCC1=C(C(=O)O)N2C(=O)[C@@H](NC(=O)CS(=O)(=O)c3ccccc3)[C@H]2SC1 | > 13 | inactive | 0.4 (≈ 0.783 µM) | 3.1 (≈ 6.07 µM) | 3.1 (≈ 6.07 µM) | 6.2 (≈ 12.1 µM) | 1.6 (≈ 3.13 µM) | 13 (≈ 25.5 µM) | 25 | Active
